Test results as given in patent publication US20230050846A1, “TREATMENT OF HEPATIC AND CARDIOVASCULAR DISORDERS” (LIFESEARCH, priority 2019, published 2023).
Peptide text beside a SMILES is read from it. * marks the point of attachment. Palmitoyl = CCCCCCCCCCCCCCCC(=O)*

What was measured:
[1] = target: T1, ecto-F1-ATPase (HepG2 cells) (Homo sapiens, UniProt P06576); test: ecto-F1-ATPase activity: extracellular ADP content, luciferin-luciferase assay; assay type: cell-based; conditions: HepG2, 5 min; for extracellular ADP concentration (ecto-F1-ATPase hydrolytic activity): peptide 0.1 to 5 μM (formula (I)) or 1 μM, effect blunted by IF1 1 μM
T1 construct: host or cells: HepG2
Procedure: The human hepatocyte cell line HepG2 was obtained from the American Type Culture Collection (#HB-8065). HepG2 were cultured in Dulbecco's Modified Eagle's Medium (DMEM)—high glucose (D0822, Sigma-Aldrich) supplemented with 10% fetal bovine serum (10270098, Life technologies), 1% Penicillin-Streptomycin solution (P0781, Sigma-Aldrich). HepG2 cells were seeded on 24-well plates at 75,000 cells/well (Day 0). After 24 hours of growing, cells were serum starved for 24 h in order to synchronize cell cycles (Day 1) and then replaced additional 24 h in complete cell growth medium (Day 2). On day 3, cells were washed and equilibrated in fresh DMEM—high glucose without red phenol for 1 h (D1145, Sigma-Aldrich).
The cells were then treated 5 min with different concentration of peptide of formula (I) (0.1 to 5 μM), the peptide of formula (II) (1 μM), SCR (1 μM), SCR-K-16 (1 μM) or apoA-I (10 μg/mL) purified from human plasma.
Specific ecto-F1-ATPase activation was assessed in the presence of IF1 protein (1 μM), a natural inhibitor of F1-ATPase that interacts with the β-subunit to inhibit the ATP hydrolysis activity [5].
Supernatants were then collected and centrifuged (10,000 g, 5 min, 4° C.) and processed for ADP and ATP measurement. For ADP measurement, ADP was converted into ATP in 150 mM NaCl, 5 mM KCl, 2 mM MgCl2, pH 7.5 buffer containing 0.5 mM phosphoenolpyruvate (PEP) and pyruvate kinase (PK, 6 U per point for 15 min at 37° C.). For ATP measurement, 100 μl of sample was analyzed using the ATP bioluminescence assay kit CLS II (Roche Diagnostics). Samples were added to the ATP assay mixture and luminescence was measured in a microplate reader Infinite F500 (Tecan, Switzerland) for 1000 ms. The ATP standard curve was produced in the same medium as the samples and in the 10^−5 to 10^−10 M concentration range. The ADP concentration was then calculated as the ATP concentration following ADP conversion minus the basal ATP concentration. Data are expressed as nanomoles of ADP produced.

HUVEC cells = test: Endothelial nitric oxide (NO) production, DAF-FM-DA probe; assay type: cell-based, human; conditions: 1 μM, 10 min; abolished by IF1
Procedure: Nitric oxide (NO) was detected using a DAF-FM-DA probe (D2321, Sigma-Aldrich) which forms fluorescent benzotriazole when it reacts with NO. HUVEC cells (PromoCell #C-12203) were seeded in 96-well plates (10,000 cells per well) and cultured in endothelial cell basal medium 2 (PromoCell #C-22211) supplemented with GM2 supplement Mix (PromoCell #C-39211), until 80-90% confluence. The medium was then replaced with M-199 without serum for 4 h, and the cells were incubated for 45 min with DAF-FM-DA (5 μM) diluted in PBS. Cells were treated with increasing concentrations of the different peptides or apoA-I (10 μM) purified from human plasma or histamine (1 mM) as positive control. In another set of experiments, cells were incubated with inhibitors (IF1, 1 μM) for 10 min before treatment with peptides or apoA-I. The fluorescence was recorded for 30 min (λex=495 nm, λem=515 nm) with a Tecan Flash Multimode Reader (Thermo Fisher Scientific). Fluorescence for each condition was compared with the value obtained in untreated cells, and results were expressed as the fold change as compared with the basal condition (untreated cells).

HepG2 cells = test: Cytotoxicity assay (MTT); assay type: cell-based, human
Procedure: HepG2 cells were seeded in a 96-well plate at a density of 10,000 cells/well in growth medium (DMEM high-glucose, 10% fetal bovine serum). The next day, growth medium was changed and the peptide of formula (I) was added once with ascending dose for 24 h, 48 or 72 h or for 48 h with repeating once in 24 h. Similarly, the peptide of formula (II) was added once with ascending dose for 24 h or 48 h or for 48 h with repeating once in 24 h. Cells were incubated for 4 h with 5 mg/L MTT and 100 μL of DMSO was added in the well. Absorbance was recorded at 570 and 660 nm using the microplate spectrophotometer system (Varioscan flash). Cell viability was calculated by subtracting the 570 nm absorbance to the background measured at 660 nm.

Compound	extracellular ADP concentration (ecto-F1-ATPase hydrolytic activity) [1]	stimulation of NO production by endothelial cells (HUVEC cells)	cell viability (MTT) (HepG2 cells; 0.1 to 25 μM, single dose 24 or 48 h, or multiple doses at 24 and 48 h)	concentration at which maximum efficacy on extracellular ADP is reached [1]	cell viability (MTT) (HepG2 cells; 0.1 to 50 μM, single dose 24, 48 or 72 h, or multiple doses at 24 and 48 h)
CCCCCCCCCCCCCCCC(=O)NCCCC[C@H](NC(=O)[C@H](CCC(=O)O)NC(=O)[C@H](CCCNC(=N)N)NC(=O)[C@H](CO)NC(=O)[C@H](CCC(N)=O)NC(=O)[C@H](C)NC(=O)[C@H](CCCNC(=N)N)NC(=O)[C@H](Cc1ccccc1)NC(=O)[C@H](Cc1ccc(O)cc1)NC(=O)[C@H](CCCNC(=N)N)NC(=O)[C@H](CCC(=O)O)NC(=O)[C@H](CCC(=O)O)NC(=O)[C@H](CCC(=O)O)NC(=O)[C@H](C)NC(=O)[C@H](CCC(N)=O)NC(=O)[C@H](CCC(=O)O)NC(=O)[C@H](CCCNC(=N)N)NC(=O)[C@H](CCCCN)NC(=O)CNC(=O)[C@H](Cc1ccccc1)NC(=O)[C@H](C)NC(=O)CNC(=O)CNC(=O)[C@H](C)NC(=O)[C@H](CCC(=O)O)NC(=O)[C@H](CCCNC(=N)N)NC(=O)[C@@H](NC(=O)[C@H](CO)NC(=O)CNC(=O)[C@H](C)NC(=O)CNC(=O)[C@H](CCCNC(=N)N)NC(C)=O)[C@@H](C)CC)C(N)=O [peptide of formula (II), CH3CO-[SEQ ID NO: 1]-K-[palmitoyl]-NH2] (Ac-RGAGSIREAGGAFGKREQAEEERYFRAQSREK(Palmitoyl)-NH2)	stimulated	about 50%	no impact		
Ac-RGAGSIREAGGAFGKREQAEEERYFRAQSRE-NH2 [peptide of formula (I), CH3CO-[SEQ ID NO: 1]-NH2]	increased	about 50%		1 µM	no impact
